Measurements reported in US20190194148A1, “TETRAZOLE-CONTAINING 1,2-CYCLOPROPANE-CARBOXAMIDES” (Bayer Pharma Aktiengesellschaft, priority 2017, published 2019).

biological target: T1, human B1 receptor (Homo sapiens, UniProt P46663); assay: Calcium flux assay (FLIPR) with recombinant CHO-K1 cells expressing human B1 receptor; format: cell-based; settings: absence of 0.1% BSA in assay buffer, read-out: hB1 free IC50
T1 construct: host or cells: CHO-K1
T1 sequence (P46663 1-353): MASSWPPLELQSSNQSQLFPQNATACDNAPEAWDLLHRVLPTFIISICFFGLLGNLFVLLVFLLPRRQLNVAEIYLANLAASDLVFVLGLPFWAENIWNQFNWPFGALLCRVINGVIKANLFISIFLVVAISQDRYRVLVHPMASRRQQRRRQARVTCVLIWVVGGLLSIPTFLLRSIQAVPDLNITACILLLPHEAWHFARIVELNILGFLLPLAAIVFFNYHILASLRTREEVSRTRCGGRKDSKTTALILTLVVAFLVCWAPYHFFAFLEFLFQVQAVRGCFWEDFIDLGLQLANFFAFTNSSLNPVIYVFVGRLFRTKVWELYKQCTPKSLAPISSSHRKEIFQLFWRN
Experimental: The potency to inhibit the Bradykinin B1 receptors was determined for the example compounds of this invention in a cell-based fluorescent calcium-mobilisation assay. The assay measures the ability of example compounds to inhibit Bradykinin B1 receptor agonist-induced increase of intracellular free Ca^2+ in the cell line expressing B1 receptor. Specifically, calcium indicator-loaded cells are pre-incubated in the absence or presence of different concentrations of example compounds followed by the stimulation with a selective B1 receptor agonist peptide. The change of the intracellular Ca^2+ concentration is monitored with a fluorescent plate reader FLIPR (Molecular Devices).
Calcium Flux Assays (FLIPR) with Cells Expressing Bradykinin B1 Receptor Calcium Flux Assay (FLIPR) with Recombinant Cells for Bradykinin B1 Receptor Antagonist, Either in the Presence (hB1 IC50) or Absence (hB1 free IC50) of 0.1% Bovine Serum Albumin (BSA) in Assay Buffer
CHO-K1 cell line expressing human B1 receptor was purchased from Euroscreen (Gosselies, Belgium, with reference name hB1-D1). The cells were grown in Nutrient Mixture Ham's F12 (Sigma) containing 10% Foetal bovine serum (Sigma) and 400 μg/mL G418 (Sigma), 5 μg/mL puromycin (Sigma).
For the calcium flux assay, 80% confluent cells were detached from the culture vessels with Versene (Gibco), and seeded into 384-well plates (Cell binding Surface; Corning, N.Y.; #3683) at a density of 15,000 cells per well. Cells were seeded in a volume of 50 μL in medium without antibiotics and incubated overnight in a humidified atmosphere with 5% CO2 at 37° C. […] The calcium indicator loaded cells were incubated at 37° C. for 2 hrs. Extracellular dye was then removed and each well was filled with 45 μL of assay buffer. Cell plates were kept in dark until used. Example compounds were assayed at 8 concentrations in triplicate. Serial 10-fold dilutions in 100% DMSO were made at a 100-times higher concentration than the final concentration, and then diluted 1:10 in assay buffer. 5 μL of each diluted compound was added to the well of cell plates (yielding final concentration with 1% DMSO), and incubated for 30 min at 28° C. before the addition of B1 receptor agonist on the FLIPR instrument.
Agonist plates contained the agonist Lys-(Des-Arg)-Bradykinin (Bachem, Brackley) at 3.5×EC90 in assay buffer with 1% DMSO. The addition of agonist 20 μl per well to the assay plate was carried out on the FLIPR instrument while continuously monitoring Ca^2+-dependent fluorescence at 538 nm. A peptide antagonist Lys-(Des-Arg-Leu)-Bradykinin (Bachem, Brackley) at 20 μM was used to determine the full inhibition as control.
Peak fluorescence was used to determine the response to agonist obtained at each concentration of example compound by the following equation:
% Response=100*(RFU(example compound)−RFU(control)/(RFU(DMSO)−RFU(control)
Control=full inhibition by the peptide antagonist Lys-(Des-Arg-Leu)-Bradykinin at 20 μM
The response values were plotted against the logarithm of the compound concentrations. The compounds were tested in triplicates per plate and mean values were plotted in Excel XLfit to determine IC50 values, percentage of maximal inhibition and the Hill slopes.

Row | IC50 [nM] | SMILES
1 | 1220 | O=C(Nc1ccc(-n2ccc(C(F)(F)F)n2)c(-c2nnn[nH]2)c1)C1CC1c1ccc(Cl)cc1 (racemic) [Example 47, 2-(4-Chlorophenyl)-N-{3-(1H-tetrazol-5-yl)-4-[3-(trifluoromethyl)-1H-pyrazol-1-yl]phenyl}cyclopropane-carboxamide]
2 | 24 | COc1ccc(-c2cc(F)c(NC(=O)C3CC3c3ccc(Cl)cc3)cc2-c2nnn[nH]2)cc1C (racemic) [Example 57, 2-(4-chlorophenyl)-N-[5-fluoro-4′-methoxy-3′-methyl-2-(1H-tetrazol-5-yl)biphenyl-4-yl]cyclo-propanecarboxamide]
3 | 947 | O=C(Nc1cc(F)c(-c2ccc(C(F)(F)F)nc2)c(-c2nnn[nH]2)c1)C1CC1c1ccc(Cl)cc1 (racemic) [Example 62, 2-(4-chlorophenyl)-N-{3-fluoro-5-(1H-tetrazol-5-yl)-4-[6-(trifluoromethyl)pyridin-3-yl]phenyl}cyclopro-panecarboxamide]
4 | 157 | Cc1cccc(C2CC2C(=O)Nc2cc(-c3nnn[nH]3)c(-c3ccc(C(F)(F)F)nc3)cc2C)c1 (racemic) [Example 70, 2-(3-Methylphenyl)-N-{2-methyl-5-(1H-tetrazol-5-yl)-4-[6-(trifluoromethyl)pyridin-3-yl]phenyl}cyclopro-panecarboxamide]
5 | 308 | Cc1cc(-c2ccc(C(F)(F)F)nc2)c(-c2nnn[nH]2)cc1NC(=O)C1CC1C1CCCCC1 (racemic) [Example 71, 2-Cyclohexyl-N-{2-methyl-5-(1H-tetrazol-5-yl)-4-[6-(trifluoromethyl)pyridin-3-yl]phenyl}cyclopro-panecarboxamide]
6 | 249 | Cc1cccc(C2CC2C(=O)Nc2ccc(-c3cc4ccccc4s3)c(-c3nnn[nH]3)c2)c1 (racemic) [Example 76, N-[4-(1-Benzothiophen-2-yl)-3-(1H-tetrazol-5-yl)phenyl]-2-(3-methylphenyl)cyclopro-panecarboxamide]
7 | 71 | O=C(Nc1ccc(-c2ccc(C(F)(F)F)nc2)c(-c2nnn[nH]2)c1)C1CC1c1ccc(Cl)cc1 (racemic) [Example 79, 2-(4-chlorophenyl)-N-{3-(1H-tetrazol-5-yl)-4-[6-(trifluoro-methyl)pyridin-3-yl]phenyl}cyclopropane-carboxamide]

same assay, conditions: presence of 0.1% BSA in assay buffer, read-out: hB1 IC50

Row | IC50 [nM] | SMILES
8 | 16 | COc1ccc(-c2cc(F)c(NC(=O)C3CC3c3cccc(C)c3)cc2-c2nnn[nH]2)cc1OC (racemic) [Example 53, N-[5-Fluoro-3′,4′-dimethoxy-2-(1H-tetrazol-5-yl)biphenyl-4-yl]-2-(3-methylphenyl)cyclopro-panecarboxamide]
9 | 26 | COc1ccc(-c2cc(F)c(NC(=O)C3CC3c3ccc(Cl)cc3)cc2-c2nnn[nH]2)cc1OC (racemic) [Example 54, 2-(4-Chlorophenyl)-N-[5-fluoro-3′,4′-dimethoxy-2-(1H-tetrazol-5-yl)biphenyl-4-yl]cyclopro-panecarboxamide]
10 | 19 | COc1ccc(-c2cc(F)c(NC(=O)C3CC3c3cccc(C)c3)cc2-c2nnn[nH]2)cc1C (racemic) [Example 56, N-[5-Fluoro-4′-methoxy-3′-methyl-2-(1H-tetrazol-5-yl)biphenyl-4-yl]-2-(3-methylphenyl)cyclopro-panecarboxamide]
11 | 124 | COc1ccc(-c2cc(F)c(NC(=O)C3CC3c3ccc(Cl)cc3)cc2-c2nnn[nH]2)cc1C (racemic) [Example 57, 2-(4-chlorophenyl)-N-[5-fluoro-4′-methoxy-3′-methyl-2-(1H-tetrazol-5-yl)biphenyl-4-yl]cyclo-propanecarboxamide]
12 | 134 | COc1ccc(-c2cc(F)c(NC(=O)C3CC3c3ccc(Cl)cc3)cc2-c2nnn[nH]2)cc1 (racemic) [Example 58, 2-(4-Chlorophenyl)-N-[5-fluoro-4′-methoxy-2-(1H-tetrazol-5-yl)biphenyl-4-yl]cyclopropanecarbox-amide]
13 | 83 | COc1ccc(-c2c(F)cc(NC(=O)C3CC3c3cccc(C)c3)cc2-c2nnn[nH]2)cc1OC (racemic) [Example 59, N-[2-Fluoro-3′,4′-dimethoxy-6-(1H-tetrazol-5-yl)biphenyl-4-yl]-2-(3-methylphenyl)cyclopro-panecarboxamide]
14 | 177 | COc1ccc(-c2c(F)cc(NC(=O)C3CC3C3CCCCC3)cc2-c2nnn[nH]2)cc1OC (racemic) [Example 60, 2-Cyclohexyl-N-[2-fluoro-3′,4′-dimethoxy-6-(1H-tetrazol-5-yl)biphenyl-4-yl]cyclopro-panecarboxamide]
15 | 24 | CCOc1ccc(-c2cc(C)c(NC(=O)C3CC3c3cccc(C)c3)cc2-c2nnn[nH]2)cn1 (racemic) [Example 63, N-[4-(6-Ethoxypyridin-3-yl)-2-methyl-5-(1H-tetrazol-5-yl)phenyl]-2-(3-methylphenyl)cyclo-propanecarboxamide]
16 | 247 | CCOc1ccc(-c2cc(C)c(NC(=O)C3CC3C3CCCCC3)cc2-c2nnn[nH]2)cn1 (racemic) [Example 65, 2-Cyclohexyl-N-[4-(6-ethoxypyridin-3-yl)-2-methyl-5-(1H-tetrazol-5-yl)phenyl]cyclopropane-carboxamide]
17 | 283 | COc1ccc(-c2cc(C)c(NC(=O)C3CC3c3ccc(Cl)cc3)cc2-c2nnn[nH]2)cc1OC (racemic) [Example 66, 2-(4-Chlorophenyl)-N-[3′,4′-dimethoxy-5-methyl-2-(1H-tetrazol-5-yl)biphenyl-4-yl]cyclopro-panecarboxamide]
18 | 430 | COc1ccc(-c2cc(C)c(NC(=O)C3CC3C3CCCCC3)cc2-c2nnn[nH]2)cc1OC (racemic) [Example 67, 2-Cyclohexyl-N-[3′,4′ dimethoxy-5-methyl-2-(1H-tetrazol-5-yl)biphenyl-4-yl]cyclopro-panecarboxamide]
19 | 336 | COc1cncc(-c2cc(C)c(NC(=O)C3CC3c3cccc(C)c3)cc2-c2nnn[nH]2)c1 (racemic) [Example 68, N-[4-(5-Methoxypyridin-3-yl)-2-methyl-5-(1H-tetrazol-5-yl)phenyl]-2-(3-methylphenyl)cyclo-propanecarboxamide]
20 | 447 | COc1cncc(-c2cc(C)c(NC(=O)C3CC3C3CCCCC3)cc2-c2nnn[nH]2)c1 (racemic) [Example 69, 2-Cyclohexyl-N-[4-(5-methoxypyridin-3-yl)-2-methyl-5-(1H-tetrazol-5-yl)phenyl]cyclopropane-carboxamide]
21 | 86 | Cc1cccc(C2CC2C(=O)Nc2cc(-c3nnn[nH]3)c(-c3ccc(C(F)(F)F)nc3)cc2C)c1 (racemic) [Example 70, 2-(3-Methylphenyl)-N-{2-methyl-5-(1H-tetrazol-5-yl)-4-[6-(trifluoromethyl)pyridin-3-yl]phenyl}cyclopro-panecarboxamide]
22 | 263 | Cc1cc(-c2ccc(C(F)(F)F)nc2)c(-c2nnn[nH]2)cc1NC(=O)C1CC1C1CCCCC1 (racemic) [Example 71, 2-Cyclohexyl-N-{2-methyl-5-(1H-tetrazol-5-yl)-4-[6-(trifluoromethyl)pyridin-3-yl]phenyl}cyclopro-panecarboxamide]
23 | 38 | CCOc1ccc(-c2cc(C)c(NC(=O)C3CC3c3cccc(C)c3)cc2-c2nnn[nH]2)cc1OC (racemic) [Example 72, N-[4′-Ethoxy-3′-methoxy-5-methyl-2-(1H-tetrazol-5-yl)biphenyl-4-yl]-2-(3-methylphenyl)cyclopro-panecarboxamide]
24 | 226 | CCOc1ccc(-c2cc(C)c(NC(=O)C3CC3C3CCCCC3)cc2-c2nnn[nH]2)cc1OC (racemic) [Example 73, 2-Cyclohexyl-N-[4′-ethoxy-3′-methoxy-5-methyl-2-(1H-tetrazol-5-yl)biphenyl-4-yl]cyclopro-panecarboxamide]
25 | 299 | COc1ccc(-c2cc(C)c(NC(=O)C3CC3C3CCCCC3)cc2-c2nnn[nH]2)cc1C (racemic) [Example 74, 2-Cyclohexyl-N-[4′-methoxy-3′,5-dimethyl-2-(1H-tetrazol-5-yl)biphenyl-4-yl]cyclopro-panecarboxamide]
26 | 12 | CCOc1ccc(-c2ccc(NC(=O)C3CC3c3cccc(C)c3)cc2-c2nnn[nH]2)cc1OC (racemic) [Example 77, N-[4′-ethoxy-3′-methoxy-2-(1H-tetrazol-5-yl)biphenyl-4-yl]-2-(3-methylphenyl)cyclopro-panecarboxamide]
27 | 6460 | O=C(Nc1ccc(-c2ccc(C(F)(F)F)nc2)c(-c2nnn[nH]2)c1)C1CC1c1ccc(Cl)cc1 (racemic) [Example 79, 2-(4-chlorophenyl)-N-{3-(1H-tetrazol-5-yl)-4-[6-(trifluoro-methyl)pyridin-3-yl]phenyl}cyclopropane-carboxamide]
